A short description of data set [1]: PK test on cynomolgus monkeys. The following applies: male, cynomolgus monkey, plasma; for bioavailability: read-out: F (absolute bioavailability). It is filed as in vivo. The method, then:
(4) PK Test on Cynomolgus Monkeys:
The PK test method of the compound in vivo of cynomolgus monkeys (purchased from Guangdong Chunsheng Biotechnology Development Co., Ltd., weight 3-6 kg, male, ages of 4-6 years, 3 per oral group, 3 per intravenous injection group):
The cynomolgus monkeys were administered intragastrically with the test compound at doses of 2.5 mg/kg or 5 mg/kg or administered intravenously with the test compound at doses of 0.5 mg/kg or 1 mg/kg.
Blood samples were taken at 0.083, 0.25, 0.5, 1, 2, 4, 6, 8 and 24 hours from vein after the administration, and collected in anticoagulation tube with EDTA-K2. After liquid-liquid extraction, the plasma sample was quantitatively analyzed on a triple quadrupole tandem mass spectrometer using multiple reactive ion monitoring (MRM). Pharmacokinetic parameters were calculated using a noncompartmental method by WinNonLin 6.3 software.

Data set [2] deals with HBV. Description: Inhibition of HBV DNA replication in HepAD38 cells (qPCR method). Particulars: Hepatitis B virus, secreted virus DNA by qPCR. Type of data set: cell-based. From the text: Test 1: Evaluation of HepAD38 Cells on the Compound's Inhibitory Activity of HBV DNA Replication (qPCR Method)
HBV Cell Strain and Culture Conditions
HepAD38: Ladner et al. (Ladner, Otto et al. 1997) ligated the tetracycline-sensitive cytomegalovirus CMV promoter to the PBR322 plasmid and ligated it with the ayw subtype HBV DNA into the ptetHBV plasmid, and HepG2 cells were transfected to obtain the HepAD38 cell strain. Due to the destruction of the pre-C region gene, the yield of HBV DNA was about 11 times higher than that of HepG2.2.15 cells. Tetracycline could be used to regulate HBV replication, and the time required for culture was only half of that of HepG2.2.15 cells. It was suitable for studying the HBV replication process and replication intermediates and screening of anti-HBV drugs. HepAD38 was cultured in DMEM/F-12K medium containing 10% FBS and 1% double antibody (it also contained Tetracycline at a final concentration of 300 ng/ml and G418 at a final concentration of 400 μg/ml).
The virus particle DNA secreted by HepAD38 cells could be quantified by qPCR method, and thus the influence of the compound on virus replication could be detected.
(§1) Test of Anti HBV Activity In Vitro
After resuscitating the HepAD38 with a small number of passages, after the cells were in good condition, Tetracycline (final concentration of 300 ng/ml) and G418 (final concentration of 400 μg/ml) were added into the medium. […] After the cells were full, they were digested, counted, and diluted with DMEM/F-12K medium containing 10% FBS (containing Tetracycline at a final concentration of 300 ng/ml and G418 at a final concentration of 400 μg/ml, 1% double antibody) to a cell suspension of concentration of 2×10^5/mL. The cell suspension was seeded in a 96-well plate (the whole plate was covered) at 100 μL per well, and incubated at 37° C. in a constant temperature incubator with 5% CO2 for 24 h.
Compound preparation and cell treatment in antiviral experiments: the compound was dissolved with DMSO to 20 mM. Furthermore, the compound was diluted with DMSO to 800 μM, and then 8 dilutions at 4 fold were performed, the highest concentration was 800 μM. 1 μL of serially diluted compound was added to each well of the above-mentioned cell plate. The highest final concentration of the experiment was 4 μM (200 fold dilution). TDF (tenofovir disoproxil fumarate, Selleck, Cat S1400) was used as a positive control compound with a highest concentration of 4 μM. 1 μL of DMSO was added to the negative control wells to a final concentration of 0.5%.
The one-step hepatitis B virus nucleic acid quantitative determination kit for 48 people (PCR-fluorescent probe method) of Shengxiang Biotechnology was used for QPCR. 2.5 μL of supernatant was absorbed for Q-PCR, and the kit reagents were vortexed and mixed well after the reagents were melted before use. After centrifugation, the enzyme mixture was placed on ice for later use, and it was ensured that the subsequent steps were completed on the ice. 2.5 μL of sample release agent and 2.5 μL of test sample supernatant (experimental group, control group, standard curve group) were added to each well of the Q-PCR plate. After QPCR reaction, the copy number of virus DNA in each well was obtained. Graphpad Prism 5 software was used to process the concentration-virus copy number, and the EC50 of the compound against virus replication was calculated through a four-parameter nonlinear regression model.
For orientation: In qPCR the cycle at which signal appears reflects the starting amount.

The subject of data set [3] is HBV. Nature of the data set: Inhibition of HBV DNA replication in HepG2.2.15 cells (qPCR). It is filed as cell-based. The following applies: Hepatitis B virus, secreted virus DNA by qPCR. The method, then: Test 2: Evaluation of HepG2.2.15 Cells on the Compound's Inhibitory Activity of HBV DNA Replication
HBV Cell Line and Culture Conditions
The chromosomes of HepG2.2.15 cells (SELLS, PNAS, 1987 and SELLS, JV, 1988) integrated a complete HBV genome and stably expressed viral RNA and viral proteins. HepG2.2.15 cells could secrete mature hepatitis B virus particles, HBsAg and HBeAg into the culture medium. HepG2.2.15 cells were cultured in a DMEM medium containing 10% fetal bovine serum, 100 U/mL penicillin, 100 U/mL streptomycin, 1% non-essential amino acids, 1 mM sodium pyruvate and 300 µg/mL G418.
The virus particle DNA secreted by HepG2.2.15 cells could be quantified by qPCR method, and the influence of the compound on virus replication could be detected.
as §1
8,000 HepG 2.2.15 cells per well were seeded into a 96-well cell culture plate, the plate was cultured at 37° C. and 5% CO2 for 3 days until the cells grew to full wells. Old liquid medium was discard and replaced with 200 μL of new medium (5% FBS) on day 0. […]
Primers: HBV-For-202, […]; HBV-Rev-315, […]. […] Graphpad Prism 5 software was used to process the concentration-virus copy number, and the EC50 of the compound against virus replication was calculated through a four-parameter nonlinear regression model.

In general, AUC(0-t) refers to exposure summed from dosing to a finite time, without extrapolation to infinity. Low readings indicate low exposure, high ones high exposure. In general, Tmax refers to the time from dosing to the highest level. By bioavailability is commonly meant dose-corrected exposure relative to a reference, in per cent. One may read the EC50 as the midpoint of the concentration-response curve.

Each structure is given as a SMILES string.

For `COC(=O)C1=C(CN2CCN3C(=O)N(c4ccc(C(=O)O)cc4)C[C@@H]3C2)NC(c2nccs2)=N[C@H]1c1ccc(F)cc1Cl` [Control compound, 4-((S)-7-(((R)-6-(2-chloro-4-fluorophenyl)-5-(methoxycarbonyl)-2-(thiazol-2-yl)-3,6-dihydropyrimidin-4-yl)methyl)-3-oxohexahydroimidazo[1,5-a]pyrazine-2(3H)-yl)benzoic acid, reference compound], in data set [1] (iv, 0.5 mg/kg), the AUC(0-t) stood at 720 ng·h/mL and the time to peak (Tmax) came to 4.98 min. In addition, in data set [1] (po, 2.5 mg/kg), the area under the curve AUC(0-t) is 647 ng·h/mL, the time of peak concentration (Tmax) was 90 min and the bioavailability was found to be 23.6%.

In the case of `COC(=O)C1=C(CN2CCN3C(=O)N(c4ccc(C(=O)O)cc4F)C[C@@H]3C2)NC(c2nccs2)=N[C@H]1c1ccc(F)cc1Cl` [Example 1], in the data set with HBV [2], the half-maximal effective concentration (EC50) is 20 nM.

In the case of `COC(=O)C1=C(CN2CCN3C(=O)N(c4ccc(C(=O)O)c(F)c4)C[C@@H]3C2)NC(c2nccs2)=N[C@H]1c1ccc(F)cc1Cl` [Example 2], in data set [1] (iv, 0.5 mg/kg), the AUC(0-t) came to 1020 ng·h/mL and the time to peak (Tmax) amounted to 4.98 min. Besides, in data set [1] (po, 2.5 mg/kg), the exposure AUC(0-t) amounted to 3380 ng·h/mL, the Tmax is 30 min and the bioavailability came out at 64.8%. In the data set on HBV [2], the 50% effective concentration (EC50) was 10 nM. The same compound registered an EC50 with HBV [3] of 4 nM.

Take `CCOC(=O)C1=C(CN2CCN3C(=O)N(c4ccc(C(=O)O)cc4F)C[C@@H]3C2)NC(c2nccs2)=N[C@H]1c1ccc(Cl)cc1Cl` [Example 7]: in the data set with HBV [2], it took 16 nM to reach a half-maximal effect (EC50).

Compound `CCOC(=O)C1=C(CN2CCN3C(=O)N(c4ccc(C(=O)O)cc4F)C[C@@H]3C2)NC(c2nccs2)=N[C@H]1c1ccc(F)cc1Br` [Example 3] showed an EC50 in the data set with HBV [2] of 31 nM.

The compound `CCOC(=O)C1=C(CN2CCN3C(=O)N(c4ccc(C(=O)O)c(F)c4)C[C@@H]3C2)NC(c2nccs2)=N[C@H]1c1ccc(Cl)cc1Cl` [Example 8] registered an EC50 with HBV [2] of 13 nM.

The compound `CCOC(=O)C1=C(CN2CCN3C(=O)N(c4ccc(C(=O)O)c(F)c4)C[C@@H]3C2)NC(c2nccs2)=N[C@H]1c1ccc(F)cc1Br` [Example 4] gave a 50% effective concentration (EC50) in the data set with HBV [2] of 16 nM. This EC50 and that of the compound before are within 1.5-fold of each other.

Compound `CCOC(=O)C1=C(CN2CCN3C(=O)N(c4ccc(C(=O)O)c(F)c4)C[C@@H]3C2)NC(c2nccs2)=N[C@H]1c1ccc(F)cc1Cl` [Example 6] yielded a concentration giving a half-maximal response (EC50) in the data set with HBV [2] of 15 nM.

The record behind these values is patent US20220194951A1, “DIHYDROPYRIMIDINE COMPOUND AND APPLICATION THEREOF AS DRUG” (SUNSHINE LAKE PHARMA CO., LTD., priority 2019, published 2022).
